System: TGFβ1-induced expression of α-SMA protein in human HSC
Assay: α-SMA ELISA in TGFβ1-activated human primary hepatic stellate cells (single agents and NTZ/statin or TZ/statin combination matrix, EOB/EOHSA)
Assay type: cell-based
Details: hHSC, TGFβ1 1 ng/mL, 48 h; for IC50: Homo sapiens, 1 h preincubation, ELISA, read-out: IC50, reduction of α-SMA level in TGFβ-induced HSC; for antifibrotic activity as single agent (α-SMA, dose-response): result in words
Experimental: After 48 hours of incubation, the expression of α-SMA was measured by ELISA. […] Data are presented as mean (triplicates)±standard deviation (SD). Statistical analyses were performed by one-way ANOVA followed by Bonferroni post-hoc tests, using Sigma Plot 11.0 software. […] After 48 hours of incubation, the expression of α-SMA was measured by ELISA. […] Data are presented as mean (triplicates)±standard deviation (SD). Statistical analyses were performed by one-way ANOVA followed by Bonferroni post-hoc tests, using Sigma Plot 11.0 software. […] Combinations were tested in a dose-response matrix format and analyzed according to the excess over Bliss (EOB) additivism model. Dilution series of NTZ (column) and pitavastatin (row) were prepared, including their respective DMSO controls. […] Data are presented as mean of quadruplicates. (B) EOB scores were calculated as described in Materials and Methods. Any compound pair with positive EOB values was considered synergistic (colored from light grey to black). […] Data are presented as mean (quadruplicates)±standard deviation (SD). Statistical analyses between single agent vs product combination were performed by student t-test or Mann-Whitney Rank Sum Test using Sigma Plot 11.0 software. [*: p<0.05; **: p<0.01; ***: p<0.001]. […] Cell-culture flasks were coated with poly-L lysine (Sigma cat #P4707) for a better adherence. The checkerboard matrix was adopted. NTZ or TZ and statin stocks were serially diluted in DMSO in a 5-points series in a row (statin) and a column (NTZ or TZ) of a 96-well plate. […] Then, 2-fold and 4-fold higher and lower concentrations were selected. […] The human primary hepatic stellate cells (hHSC) (Innoprot) were cultured under standard conditions, as described above. […] Plates were then incubated for 30 min on ice using a plate shaker, before storage at -20° C. The level of α-SMA was measured using a Sandwich ELISA. Briefly, the wells of an ELISA plate were first coated with the capture antibody (mouse monoclonal anti-ACTA2, Abnova) at 4° C. overnight. […] The cell lysates were transferred into the wells for binding to the capture antibody for a period of 2 h at room temperature. After the washing procedure, the detection antibody (biotinylated mouse monoclonal anti-ACTA2, Abnova) was added for 2 hours at room temperature followed by 3 washes. For the detection, an HRP-conjugated streptavidin (R&D Systems cat #DY998) was first applied for 30 min at room temperature. […] Upon oxidation, TMB forms a water-soluble blue reaction product that becomes yellow with addition of sulfuric acid (solution stop), enabling accurate measurement of the intensity at 450 nm using a spectrophotometer. The developed color is directly proportional to the amount of α-SMA present in the lysate. […] Expected Bliss additivism score (E) was firstly determined by the equation: E=(A+B)-(A×B) where A and B are the percentage inhibitions converted into fractions within a range of 0 to 1 of NTZ (A) and a given statin (B) at a given dose. […] For each product combination (NTZ+statin), an additional total Bliss score was calculated by summation of all EOB. […] The significance of the observed differences between NTZ/statin or TZ/statin and single agents were estimated by a student t-test or Mann-Whitney Rank Sum Test using Sigma Plot 11.0 software [*: p<0.05; **: p<0.01; ***: p<0.001].

Row | IC50 [µM] | Structure (SMILES) | antifibrotic activity as single agent (α-SMA, dose-response)
1 | 1 to 3 | CC(C)c1c(C(=O)Nc2ccccc2)c(-c2ccccc2)c(-c2ccc(F)cc2)n1CC[C@@H](O)C[C@@H](O)CC(=O)O [atorvastatin] | –
2 | < 1 | CC(C)n1c(/C=C/C(O)CC(O)CC(=O)O)c(-c2ccc(F)cc2)c2ccccc21 (stereo not drawn) [fluvastatin] | –
3 | 1 to 3 | CC[C@H](C)C(=O)O[C@H]1C[C@@H](C)C=C2C=C[C@H](C)[C@H](CC[C@@H]3C[C@@H](O)CC(=O)O3)[C@H]21 [lovastatin] | –
4 | < 1 | O=C(O)C[C@H](O)C[C@H](O)/C=C/c1c(C2CC2)nc2ccccc2c1-c1ccc(F)cc1 [pitavastatin] | –
5 | – | CC[C@H](C)C(=O)O[C@H]1C[C@H](O)C=C2C=C[C@H](C)[C@H](CC[C@@H](O)C[C@@H](O)CC(=O)O)[C@H]21 [pravastatin] | inactive
6 | – | CC(C)c1nc(N(C)S(C)(=O)=O)nc(-c2ccc(F)cc2)c1/C=C/[C@@H](O)C[C@@H](O)CC(=O)O [rosuvastatin] | significant antifibrotic activity but only at the highest doses

— patent US11400078B2, “Methods of treatment for cholestatic and fibrotic diseases” (Genfit, priority 2016, dated 2022)
